Reference: a melting point compilation (Tetko et al.; mined from patent text by program, amines drawn as free bases though some values may be those of a salt)

SMILES | melting point
CC(C)CCN1C(=O)C(NC(=O)Oc2cccc(N(C)C)c2)C(=O)N(c2ccccc2)c2cc(Cl)c(Cl)cc21 (stereo not given) | 163 to 164 °C
CCOC(=O)CNC(=O)Nc1ccc(S(=O)(=O)Nc2onc(C)c2C)cc1 | 115 to 125 °C
CCc1cccc(C2=NC(C)(C)CO2)c1C | 96 to 98 °C
C=CCNC(=NC#N)NCC=C | 66.5 to 67 °C
Cc1ccc(-c2nc(C)ccc2N2CCN(c3ccc(C)cc3)CC2)cc1 | 131 to 139 °C
COc1cc(C(O)CCCCCCCCCCOCc2ccccc2)ccc1OCc1ccccc1 (stereo not given) | 43 to 45 °C
CCCCn1c(=O)c2c(cnn2S(=O)(=O)CC)n(CCCC)c1=O | 119 to 121 °C
COc1cc(C(=O)NC2CCC(N(C)C)CC2)ccc1Nc1ncc2c(n1)N(C1CCCCC1)CC(F)(F)C(=O)N2C (stereo not given) | 208 to 214 °C
CC(C)(C)OC(=O)N1CCC(Nc2cccc(NC(=O)c3ccc(F)cc3Cl)n2)CC1 | 82 °C
COC(=O)c1cc2c(Oc3ccc(Cl)cc3)cncc2s1 | 99 to 100 °C
COCC(C)Oc1cc(-n2c(=O)cc(C(F)(F)F)n(C)c2=O)c(F)cc1Cl (stereo not given) | 80 to 82 °C
CCOC(=O)C(=NOC)c1ccccc1CBr | 80 to 81 °C
CC(C)(Oc1ccc(Cl)cc1)C(C)(O)c1cccnc1 (stereo not given) | 140 to 141 °C
COc1ccc2c(c1)c(C(=O)CCC(=O)O)c(C)n2Cc1ccc(Br)cc1 | 215 to 217 °C
O=C(Nc1ccc2c3c(oc2c1)CCC(O)C3O)c1c(Cl)cccc1Cl (stereo not given) | 206 to 209 °C
Nc1ccc(-c2n[nH]c(-c3ccncc3)n2)cc1 | 251 to 252 °C
CN(C)CCOc1ccc(O)c(C=NCCN=Cc2cc(OCCN(C)C)ccc2O)c1 | 84 to 86 °C
N#Cc1ccc(NC(=O)c2cccc(OCc3ccc(OC(F)(F)F)cc3)c2)cc1 | 138 to 139 °C
COc1ccc(CC(OC)C(=O)O)cc1NC(=O)Cc1ccc(C(F)(F)F)cc1 (stereo not given) | 124 to 125 °C
CN(C)c1ccc(C(=C2SCCCS2)c2ccccc2)cc1 | 172 to 174 °C

SMILES | melting point
CCCCCCCCCCCCCCCC(=O)N[C@@H](CSC(=O)CCCCCCCCCCCCCCC)C(=O)O | 82 to 84 °C
CN1C2CCCC1CC(NC(=O)c1cccc3oc(-c4ccc(F)cc4)nc13)C2 (stereo not given) | 197 to 199 °C
O=C1CN(c2ccccc2)C(=S)N1Cc1ccccc1 | 103 °C
CNCCOc1ccc2nc(SCc3ccc(Cl)cc3)sc2c1 | 56 to 58 °C
C[C@H]1CCCC(C)(C)[C@@H]1C(=O)c1ccc(C#N)c(F)c1 | 53 to 56 °C
CC(C)(C)NC1=NS(=O)(=O)c2ccc(Cl)cc2N1 | 291 to 294 °C
COc1cc2c(cn1)OCC21C(=O)Nc2ccccc21 (stereo not given) | 231 to 232 °C
O=Cc1cc2cc(OCc3ccccc3)c(F)cc2nc1Cl | 228 °C
O=S1(=O)NC(c2ccccc2)Nc2c(Br)cc(Br)cc21 (stereo not given) | 186 to 189 °C
CC(=O)Nc1c(C(=O)c2ccccc2)[nH]c2cc(C)ccc12 | 136 to 138 °C
CC1(C)CC(Nc2nc(NC3CC(C)(C)NC(C)(C)C3)nc(NC3CC(C)(C)NC(C)(C)C3)n2)CC(C)(C)N1 | 219 to 221 °C
O=C1CCC(C(=O)N2CCN(C(=O)CN3CCOCC3)CC2)N1 (stereo not given) | 204 to 205 °C
O=C1CC(c2cccc(-n3ccnc3)c2)=Nc2cc(N3CCOC3=O)c(-c3ccc(F)cc3)cc2N1 | 230 °C
CCN1CC2CN(CC)CC(C1)C2O (stereo not given) | 61.5 °C
N#Cc1cnn(-c2ccc(Cl)c(Cl)c2Cl)c1C=CC(=O)O | 215 to 219 °C
COC(=O)C(=O)Cc1ccc(SC)cc1 | 112 to 113 °C
CCNC(=O)/C=C/c1cccc(Cl)c1 | 87 to 88 °C
CC(=O)N(CCP(=O)(O)O)Cc1cc([N+](=O)[O-])cc2[nH]c(=O)c(=O)[nH]c12 | 248 °C
Cc1cc(C)c(-n2ccc3c(Cl)nn(C)c(=O)c32)c(C)c1 | 170 to 171 °C
CNc1ncc2c(-c3cccc(Cl)c3)cc(-c3cccc(CC(=O)O)c3)c(OC)c2n1 | 258 to 261 °C
